Data taken from paper PMC9549831 (European Journal of Clinical Pharmacology, 2022).

How the values were obtained:
[1] = parameters: method as in PMID 12076989; details: after co-administration of diltiazem with saxagliptin; cited from earlier work
[2] = independent of total drug concentrations; cited from earlier work
PDE5 = details: relative to sildenafil; cited from earlier work
[3] = cited from earlier work
clinical = details: human, in vivo
Procedure: Mobile phase composition is 25 mM ammonium acetate: methanol 25:[…]. The flow rate was set at 0.7 ml/min. Injection volume was set at 2.5 ul. […] Before transferring the plasma sample to the MCX cartridge, acidification of the plasma sample with […] of (formic acid 2%) was performed. The sample was washed with 200 ul of 2% formic acid in water followed by 200 ul of methanol. […] Then 350 ul of water was added to the eluent and vortexed. After that, the diluted eluent was transferred to a vial insert, and 2.5 μl was injected into LC/MS/ MS system for analysis. […] The limit of quantification was defined considering the method sensitivity, the precision, and the accuracy. To evaluate precision and accuracy, specific quality control samples were included in the validation procedure. […] Blood samples were collected into tubes containing EDTA disodium as an anticoagulant slightly shaken and centrifuged at approximately 4000 r.p.m. for 10 min. After centrifugation, plasma samples were transferred directly into a 5 ml-plastic tube. These samples were immediately stored at the study site in a freezer at a nominal temperature - 80 °C until analysis. The label of the collecting tubes had the study's code number, subject number, study period, and the designated sample number. […] Pharmacokinetic parameters were determined and calculated. […] The pharmacokinetic analysis was performed using the SAS program. All results were expressed as mean ± SD. Paired T-Test was used to compare results, and the level of significance was considered at (P < 0.05).

[4] = Pharmacodynamic parameters: blood glucose levels (Gmax, AUCg0-t) in healthy volunteers; assay type: in vivo, human
Procedure: (§1) Blood glucose levels were measured for all volunteers on the ninth and the thirteenth day before dosing and at 0.5, 0.75, 1, 1.5, 2, 2.5, 3, 12, and 24 h; the main outcome measures were maximum plasma glucose concentration (Gmax) and the area under the blood glucose concentration–time curve (AUCg0-t). Blood pressure (systolic and diastolic) and heart rate were measured before dosing and at 2, 4, 6, 8, and 10 h after drug administration.

[5] = Safety and tolerability: adverse effects, blood pressure, pulse rate in healthy volunteers; assay type: in vivo, human; details: for incidence of reported headache: 18 volunteers
Procedure: as §1
Blood pressure, pulse rate, and body temperature together with blood glucose levels were reported all over the study. Moreover, possible side and/or adverse reactions or events to the study formulations were recorded to assure the safety and tolerability of different drug administrations.

[6] = healthy subjects and patients with type 2 diabetes; cited from earlier work
[7] = parameters: method as in PMID 33459228; details: cited from earlier work
isolated aorta rings = details: cited from earlier work
[8] = oral administration, fasting conditions

## N#C[C@@H]1C[C@@H]2C[C@@H]2N1C(=O)[C@@H](N)C12CC3CC(O)(CC(O)(C3)C1)C2 [5-hydroxy saxagliptin]
[1]
  decrease of geometric mean AUC0-inf: 34%
  decrease of geometric mean Cmax: 43%

## CCCc1nn(C)c2c(=O)[nH]c(-c3cc(S(=O)(=O)N4CCNCC4)ccc3OCC)nc12 [N-desmethyl metabolite]
[2]
  bound to plasma proteins: 96%
PDE5
  in vitro potency for PDE5 relative to the parent drug: approximately 50%
[3]
  plasma concentrations relative to those found for sildenafil: approximately 40%
  terminal half-life (t1/2): approximately 4 h

## N#C[C@@H]1C[C@@H]2C[C@@H]2N1C(=O)[C@@H](N)C12CC3CC(CC(O)(C3)C1)C2 [saxagliptin]
clinical; 5 mg
  AUC(0-inf): 113 ng·h/mL
  AUC(0-t): 112 ng·h/mL
  Tmax: 1.24 h
[4]; saxagliptin 5 mg + sildenafil 50 mg co-administered
  maximum glucose concentration (Gmax): 95.6 mg/dL
[4]; saxagliptin 5 mg multiple doses alone
  maximum glucose concentration (Gmax): 93.7 mg/dL
[5]; after co-administration of saxagliptin and sildenafil vs alone (P > 0.001)
  blood pressure and pulse rate: comparable
[5]; co-administration of saxagliptin 5 mg and sildenafil 50 mg
  incidence of reported headache: 44.4%
[5]; drug administered alone
  incidence of reported headache: 0%
[6]
  mean half-life: 2.2 to 3.8 h
  time to reach maximal plasma concentration: < 2 h
[7]; co-administration of simvastatin 40 mg
  overall systemic exposure to saxagliptin [AUCs]: not affected
[7]; concluded from simvastatin pharmacokinetics at steady state
  effect on CYP3A4 activity: neither induces nor inhibits CYP3A4 activity
Isolated aorta rings
  rise of NO/ONOO- rate: about 40%
  stimulation of NO release: about 18%

## CCCc1nn(C)c2c(=O)[nH]c(-c3cc(S(=O)(=O)N4CCN(C)CC4)ccc3OCC)nc12 [sildenafil]
clinical; 50 mg
  AUC(0-t): 977 ng·h/mL
  Cmax: 302 ng/mL
  Tmax: 0.977 h
[5]; drug administered alone
  incidence of reported headache: 33.3%
[3]
  absolute oral bioavailability, range: 25–63%
  mean absolute oral bioavailability: 41%
  mean steady-state volume of distribution: 105 L
  terminal half-life (t1/2): 3 to 5 h
  total body clearance: 41 L/h
[3]; [8]
  median time to Cmax: 60 min
  time to maximum observed plasma concentration (Cmax): 30 to 120 min
